Laboratory results published in patent US20230078764A1 (Yumanity Therapeutics, Inc., priority 2019, published 2023).

Columns and labels:
human SCD1 = biological target: T1, human SCD1 (Homo sapiens, UniProt O00767); assay: Growth inhibition of yeast strain expressing human SCD1 as sole desaturase (OLE1 deleted), OD600 readout; assay type: cell-based; conditions: yeast strain expressing human SCD1 as sole desaturase; growth (OD600) after 40 h at 30° C.; read-out: SCD1 IC50
T1 construct: expressed in transfected cells; host or cells: yeast strain with OLE1 deleted, plasmid-borne human SCD1 (selected in SD-Ura)
T1 sequence (O00767 1-359): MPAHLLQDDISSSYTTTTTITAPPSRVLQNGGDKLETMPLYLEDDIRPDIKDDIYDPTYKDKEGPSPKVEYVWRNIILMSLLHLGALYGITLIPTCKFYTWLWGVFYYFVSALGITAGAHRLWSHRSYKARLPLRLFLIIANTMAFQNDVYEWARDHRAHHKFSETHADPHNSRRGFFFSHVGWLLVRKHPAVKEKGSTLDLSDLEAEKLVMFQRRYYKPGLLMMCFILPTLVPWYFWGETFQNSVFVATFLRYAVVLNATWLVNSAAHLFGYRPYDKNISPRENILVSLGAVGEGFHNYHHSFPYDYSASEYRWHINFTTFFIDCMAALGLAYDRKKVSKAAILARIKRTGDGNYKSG

human SCD5 = biological target: T2, human SCD5 (Homo sapiens, UniProt Q86SK9); assay: Growth inhibition of yeast strain expressing human SCD5 as sole desaturase (OLE1 deleted), OD600 readout; assay type: cell-based; conditions: yeast strain expressing human SCD5 as sole desaturase; growth (OD600) after 40 h at 30° C.; read-out: SCD5 IC50
T2 construct: expressed in transfected cells; host or cells: yeast strain with OLE1 deleted, plasmid-borne human SCD5 (selected in SD-Ura)
T2 sequence (Q86SK9 1-330): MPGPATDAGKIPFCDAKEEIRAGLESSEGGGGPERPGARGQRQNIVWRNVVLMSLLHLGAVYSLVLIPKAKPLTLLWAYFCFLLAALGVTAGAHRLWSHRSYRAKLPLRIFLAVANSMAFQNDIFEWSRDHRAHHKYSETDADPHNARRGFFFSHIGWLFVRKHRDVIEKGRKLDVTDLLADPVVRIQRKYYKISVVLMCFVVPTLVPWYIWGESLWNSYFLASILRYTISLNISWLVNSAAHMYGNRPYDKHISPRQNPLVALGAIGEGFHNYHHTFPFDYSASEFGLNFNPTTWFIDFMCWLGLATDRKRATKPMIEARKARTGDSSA

| IC50 (human SCD1) | IC50 (human SCD5) | SMILES |
| --- | --- | --- |
| > 45 µM | > 45 µM | O=C(Nc1ccc(Cc2cccc(Cl)c2)cn1)c1ccn2cnnc2c1 [Compound 429] |
| > 45 µM | > 45 µM | Cc1ccc(Cc2ccc(NC(=O)C3=NN(C)C(=O)CC3)nc2)cn1 [Compound 435] |
| 6.24 µM | > 45 µM | CN1N=C(C(=O)Nc2ccc(Cc3cccc(CO)c3)cn2)CCC1=O [Compound 436] |
| > 45 µM | > 45 µM | Cc1cncc(Cc2ccc(NC(=O)C3=NN(C)C(=O)CC3)nc2)c1 [Compound 437] |
| > 45 µM | > 45 µM | CN1N=C(C(=O)Nc2ccc(Cc3cccc(C=O)c3)cn2)CCC1=O [Compound 440] |
| > 45 µM | > 45 µM | CN1N=C(C(=O)Nc2ccc(Cc3cncc(F)c3)cn2)CCC1=O [Compound 442] |
| > 45 µM | > 45 µM | Cc1nc(C(=O)Nc2ccc(Cc3cccc(F)c3)cn2)ccc1F [Compound 448] |
| > 45 µM | > 45 µM | Cc1ccc(Cc2ccc(NC(=O)c3ccc(=O)n(C)c3)nc2)cn1 [Compound 449] |
| > 45 µM | > 45 µM | Cc1cncc(Cc2ccc(NC(=O)c3ccc(=O)n(C)c3)nc2)c1 [Compound 450] |
| > 45 µM | > 45 µM | Cn1cc(C(=O)Nc2ccc(COc3ccc(F)cc3)cn2)ccc1=O [Compound 452] |
| 0.18 µM | > 45 µM | Cn1cc(C(=O)Nc2ccc(Cc3cncc(F)c3)cn2)ccc1=O [Compound 453] |
| 1.93 µM | > 45 µM | COC(=O)c1ccc(C(=O)Nc2ccc(Cc3cccc(Cl)c3)cn2)nn1 [Compound 454] |
| > 45 µM | > 45 µM | Cn1cc(-c2ccc(NC(=O)Cc3cccc(F)c3)nc2)ccc1=O [Compound 457] |
| > 45 µM | > 45 µM | Cn1c(C(=O)Nc2ccc(Cc3cccc(F)c3)cn2)cc(=O)n1C [Compound 459] |
| > 45 µM | > 45 µM | Cn1c(C(=O)Nc2ccc(Cc3cccc(Cl)c3)cn2)cc(=O)n1C [Compound 460] |
| > 45 µM | > 45 µM | Cn1cc(C(=O)Nc2nnc(Cc3cccc(F)c3)s2)ccc1=O [Compound 461] |
| > 45 µM | > 45 µM | Cn1cc(C(=O)Nc2nnc(Cc3cccc(Cl)c3)s2)ccc1=O [Compound 462] |
| > 45 µM | > 45 µM | Cc1ccnc(Cc2ccc(NC(=O)C3=NN(C)C(=O)CC3)nc2)c1 [Compound 469] |
| > 45 µM | > 45 µM | CN1N=C(C(=O)Nc2ccc(Cc3ccc(C#N)c(F)c3)cn2)CCC1=O [Compound 470] |
| > 45 µM | > 45 µM | Cn1cc(C(=O)Nc2nnc(Cc3ccc(F)cc3)s2)ccc1=O [Compound 473] |
| 2.1 µM | 0.019 µM | N#Cc1ccc(C(=O)Nc2ccc(Cc3cc(F)cc(F)c3)cn2)cn1 [Compound 478] |
| 12 µM | 0.68 µM | COCc1ncc(C(=O)Nc2ccc(Cc3cccc(Cl)c3)cn2)cn1 [Compound 479] |
| 3.5 µM | 0.23 µM | CN1CC=C(C(=O)Nc2ccc(Cc3cccc(F)c3)cn2)NC1=O [Compound 480] |
| 0.12 µM | 0.027 µM | O=C(Nc1ccc(Cc2cccc(F)c2)cn1)c1cncc(CO)c1 [Compound 481] |
| 0.075 µM | 0.017 µM | O=C(Nc1ccc(Cc2cccc(Cl)c2)cn1)c1cncc(CO)c1 [Compound 483] |
| 0.53 µM | 0.014 µM | Cc1ccc(C(=O)Nc2ccc(Cc3cc(F)cc(F)c3)cn2)nn1 [Compound 484] |
| 0.21 µM | 0.021 µM | Cc1nccc(C(=O)Nc2ccc(Cc3ccc(F)c(F)c3)cn2)n1 [Compound 485] |
| > 45 µM | 0.544 µM | CCn1nc(C(=O)Nc2ccc(Cc3cccc(Cl)c3)cn2)cc1O [Compound 489] |
| > 45 µM | 2.2 µM | O=C(Nc1ccc(Cc2cccc(F)c2)cn1)c1ncc(Br)cn1 [Compound 490] |
| 25 µM | 6.5 µM | CC(C)(C#N)c1ccc(C(=O)Nc2ccc(Cc3cccc(Cl)c3)cn2)cn1 [Compound 491] |

The next lines start with the compound.

| SMILES | IC50 (human SCD1) | IC50 (human SCD5) |
| --- | --- | --- |
| COC(=O)c1ccc(C(=O)Nc2ccc(COc3ccc(F)c(Cl)c3)cn2)nc1 [Compound 428] | > 45 µM | > 45 µM |
| Cn1nc(C(=O)Nc2nc(C(N)=O)c(Cc3cccc(F)c3)s2)ccc1=O [Compound 430] | > 45 µM | > 45 µM |
| Cn1cc(C(=O)Nc2nnc(Cc3cc(F)cc(Cl)c3)s2)ccc1=O [Compound 431] | 1.07 µM | > 45 µM |
| Cn1nc(C(=O)N2CCC(Oc3cccc(Cl)c3)CC2)ccc1=O [Compound 432] | > 45 µM | > 45 µM |
| CN1N=C(C(=O)Oc2ccc(NCc3cccc(F)c3)nc2)CCC1=O [Compound 433] | > 45 µM | > 45 µM |
| Cn1nc(NC(=O)N[C@H]2CC[C@H](Cc3cccc(Cl)c3)CC2)ccc1=O [Compound 434] | > 45 µM | > 45 µM |
| CO[C@H]1C[C@@H](C(=O)Nc2ccc(Cc3cccc(F)c3)cn2)N(C)C1 [Compound 438] | > 45 µM | > 45 µM |
| CN1N=C(C(=O)Nc2ccc(NCc3cc(F)cc(C#N)c3)nc2)CCC1=O [Compound 439] | > 45 µM | > 45 µM |
| Cn1nc(C(=O)Nc2ccc(OCc3cc(F)cc(C#N)c3)cn2)ccc1=O [Compound 441] | > 45 µM | > 45 µM |
| CN1N=C(C(=O)Nc2cnc(Cc3cccc(Cl)c3)nc2)CCC1=O [Compound 443] | > 45 µM | > 45 µM |
| C=CCCc1ccc(NC(=O)C2=NN(C)C(=O)CC2)nc1 [Compound 444] | > 45 µM | > 45 µM |
| CN1N=C(C(=O)Nc2ccc(Cc3cccc(C(F)(F)F)n3)cn2)CCC1=O [Compound 445] | > 45 µM | > 45 µM |
| CO[C@H]1C[C@@H](C(=O)Nc2ccc(Cc3cccc(F)c3)cn2)N(C(=O)OC(C)(C)C)C1 [Compound 446] | > 45 µM | > 45 µM |
| CO[C@@H]1CN[C@H](C(=O)Nc2ccc(Cc3cccc(F)c3)cn2)C1 [Compound 447] | > 45 µM | > 45 µM |
| O=C(O)c1ccc(C(=O)Nc2ccc(Cc3cccc(Cl)c3)cn2)nn1 [Compound 451] | 1.4 µM | > 45 µM |
| COc1ccc(Cn2c(C(=O)Nc3ccc(Cc4cccc(F)c4)cn3)cc(=O)n2C)cc1 [Compound 455] | > 45 µM | > 45 µM |
| COc1ccc(Cn2c(C(=O)Nc3ccc(Cc4cccc(Cl)c4)cn3)cc(=O)n2C)cc1 [Compound 456] | > 45 µM | > 45 µM |

| SMILES | IC50 (human SCD1) | IC50 (human SCD5) |
| --- | --- | --- |
| CN1C(=O)OC[C@H]1C(=O)Nc1ccc(Cc2cccc(F)c2)cn1 [Compound 458] | > 45 µM | > 45 µM |
| Cn1cc(C(=O)N2CCC(Oc3cccc(Cl)c3)CC2)ccc1=O [Compound 464] | > 45 µM | > 45 µM |
| Cn1cc(C(=O)N[C@H]2CC[C@@H](Cc3cccc(Cl)c3)CC2)ccc1=O [Compound 465] | > 45 µM | > 45 µM |
| Cn1cc(C(=O)NC2CCC(Oc3cccc(Cl)c3)CC2)ccc1=O (stereo not drawn) [Compound 466] | > 45 µM | > 45 µM |
| Cn1cc(-c2ccc(C(=O)NCc3cccc(F)c3)nc2)ccc1=O [Compound 467] | > 45 µM | > 45 µM |
| CN1N=C(C(=O)Nc2ccc(CC3CC3)cn2)CCC1=O [Compound 468] | > 45 µM | > 45 µM |
| CN1N=C(C(=O)Nc2cc(Cc3cccc(Cl)c3)cnc2N)CCC1=O [Compound 471] | > 45 µM | > 45 µM |
| CC(O)C1CN(C(=O)Nc2ccc(Cc3cccc(Cl)c3)cn2)C1 (stereo not drawn) [Compound 472] | > 45 µM | > 45 µM |
| Cn1nc(C(=O)Nc2ccc(CC3CCCCC3)cn2)cc1O [Compound 476] | > 45 µM | 7.6 µM |
| CN1N=C(C(=O)Nc2ccc(C=C3CCCCC3)cn2)CCC1=O [Compound 477] | > 45 µM | 18 µM |
| N#Cc1ccc(C(=O)Nc2ccc(CNc3cccc(Cl)c3)cn2)cn1 [Compound 482] | 4.8 µM | 0.62 µM |
| COc1nccc(C(=O)Nc2ccc(Cc3ccc(F)c(F)c3)cn2)n1 [Compound 486] | 7.8 µM | 0.11 µM |
| Cn1cc(NC(=O)c2ccc(COc3cccc(Cl)c3)cn2)ccc1=O [Compound 487] | 4.6 µM | 0.31 µM |
| Cn1cc(NC(=O)c2ccc(COc3ccc(F)c(Cl)c3)cn2)ccc1=O [Compound 488] | 5.8 µM | 0.109 µM |
| N#Cc1ccc(C(=O)Nc2ccc(COc3cccc(Cl)c3)cn2)cn1 [Compound 492] | > 45 µM | 5.8 µM |
| N#Cc1ccc(C(=O)Nc2ccc(Cc3cc(F)cc(F)c3)cn2)nc1 [Compound 493] | 32 µM | 0.043 µM |
